# Test results published in PubChem BioAssay AID2060601 (Molecular Pharmacology Branch, DTP, NCI, 2025).
# pIC50: −log10 of the molar value. Values joined by “and” are separate entries in the source; they are usually repeats but may differ in a detail not shown here. Equal values may be shown once.
# System: 874868-142-R-J2-PDC complex spheroids, growth % test/control
# Experiment: Anticancer human tumor 874868-142-R-J2-PDC patient-derived head and neck squamous carcinoma cell line growth inhibition [CLK]
# Settings: for viability, T/C: stronger effect = lower value
# Method in brief: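 Patient-derived tumor cells grown as complex spheroids with HUVEC endothelial cells and mesenchymal stem cells, treated with drug combinations. Concentrations descend in half-log steps from near clinical Cmax, or from 10 microM if Cmax unknown.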
# [1] = curve of first compound, second compound 0.0316 µM
# [2] = curve of first compound, second compound 0.1 µM
# [3] = curve of first compound, second compound 0.316 µM
# [4] = curve of first compound, second compound 1 µM
# [5] = curve of first compound, second compound 3.16 µM
# [6] = curve of first compound, second compound 10 µM
# [7] = second compound 0.0316 µM, first compound 0.0316 µM
# [8] = second compound 0.0316 µM, first compound 0.1 µM
# [9] = second compound 0.0316 µM, first compound 0.316 µM
# [10] = second compound 0.0316 µM, first compound 1 µM
# [11] = second compound 0.0316 µM, first compound 3.16 µM
# [12] = second compound 0.0316 µM, first compound 10 µM
# [13] = second compound 0.1 µM, first compound 0.0316 µM
# [14] = second compound 0.1 µM, first compound 0.1 µM
# [15] = second compound 0.1 µM, first compound 0.316 µM
# [16] = second compound 0.1 µM, first compound 1 µM
# [17] = second compound 0.1 µM, first compound 3.16 µM
# [18] = second compound 0.1 µM, first compound 10 µM
# [19] = second compound 0.316 µM, first compound 0.0316 µM
# [20] = second compound 0.316 µM, first compound 0.1 µM
# [21] = second compound 0.316 µM, first compound 0.316 µM
# [22] = second compound 0.316 µM, first compound 1 µM
# [23] = second compound 0.316 µM, first compound 3.16 µM
# [24] = second compound 0.316 µM, first compound 10 µM
# [25] = second compound 1 µM, first compound 0.0316 µM
# [26] = second compound 1 µM, first compound 0.1 µM
# [27] = second compound 1 µM, first compound 0.316 µM
# [28] = second compound 1 µM, first compound 1 µM
# [29] = second compound 1 µM, first compound 3.16 µM
# [30] = second compound 1 µM, first compound 10 µM
# [31] = second compound 3.16 µM, first compound 0.0316 µM
# [32] = second compound 3.16 µM, first compound 0.1 µM
# [33] = second compound 3.16 µM, first compound 0.316 µM
# [34] = second compound 3.16 µM, first compound 1 µM
# [35] = second compound 3.16 µM, first compound 3.16 µM
# [36] = second compound 3.16 µM, first compound 10 µM
# [37] = second compound 10 µM, first compound 0.0316 µM
# [38] = second compound 10 µM, first compound 0.1 µM
# [39] = second compound 10 µM, first compound 0.316 µM
# [40] = second compound 10 µM, first compound 1 µM
# [41] = second compound 10 µM, first compound 3.16 µM
# [42] = second compound 10 µM, first compound 10 µM
# 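Further: spheroids exposed to the compounds for 7 days.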
# 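Wherever viability, T/C is given: 100% = DMSO vehicle control viability.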
smiles,measurement,setting,value
C=CC(=O)N1CCN(c2nc(=O)n(-c3c(C)ccnc3C(C)C)c3nc(-c4c(O)cccc4F)c(F)cc23)C(C)C1 (stereo unspecified) + CN1CCN(c2cc(C(=O)Nc3cc4cc(-c5cnn(C)c5)ccc4cn3)ccn2)CC1,pIC50,[1],< 5.00
same,pIC50,[2],< 5.00
same,pIC50,[3],> 7.50
same,pIC50,[4],> 7.50
same,pIC50,[5],> 7.50
same,pIC50,[6],> 7.50
same,"viability, T/C",[7],86.4%
same,"viability, T/C",[8],98.4%
same,"viability, T/C",[9],96.1%
same,"viability, T/C",[10],131%
same,"viability, T/C",[11],129%
same,"viability, T/C",[12],125%
same,"viability, T/C",[13],81%
same,"viability, T/C",[14],73.3%
same,"viability, T/C",[15],82.2%
same,"viability, T/C",[16],86.3%
same,"viability, T/C",[17],93.9%
same,"viability, T/C",[18],109%
same,"viability, T/C",[19],16.9%
same,"viability, T/C",[20],16.9%
same,"viability, T/C",[21],21.9%
same,"viability, T/C",[22],11.1%
same,"viability, T/C",[23],17.8%
same,"viability, T/C",[24],12.2%
same,"viability, T/C",[25],0.5%
same,"viability, T/C",[26],0.38%
same,"viability, T/C",[27],0.54%
same,"viability, T/C",[28],2.26%
same,"viability, T/C",[29],0.49%
same,"viability, T/C",[30],0.41%
same,"viability, T/C",[31],0.17%
same,"viability, T/C",[32],2.77%
same,"viability, T/C",[33],1.11%
same,"viability, T/C",[34],0.43%
same,"viability, T/C",[35],0.45%
same,"viability, T/C",[36],0.24%
same,"viability, T/C",[37],0.68%
same,"viability, T/C",[38],0.21%
same,"viability, T/C",[39],1.43%
same,"viability, T/C",[40],0.18%
same,"viability, T/C",[41],0.17%
same,"viability, T/C",[42],3.04%
Nc1ccccc1NC(=O)c1ccc(CNC(=O)OCc2cccnc2)cc1 + CNC(=O)c1ccc(Nc2nc(OC3CCCC3)c3c(-c4ccc5nc(C)oc5c4)c[nH]c3n2)c(OC)c1,pIC50,[1],5.14
same,pIC50,[2],5.14
same,pIC50,[3],5.32
same,pIC50,[4],6.60
same,pIC50,[5],5.40
same,pIC50,[6],5.46
same,"viability, T/C",[7],107%
same,"viability, T/C",[8],87.5%
same,"viability, T/C",[9],110%
same,"viability, T/C",[10],114%
same,"viability, T/C",[11],109%
same,"viability, T/C",[12],28.7%
same,"viability, T/C",[13],82.6%
same,"viability, T/C",[14],73.7%
same,"viability, T/C",[15],94.4%
same,"viability, T/C",[16],109%
same,"viability, T/C",[17],101%
same,"viability, T/C",[18],33.6%
same,"viability, T/C",[19],61.5%
same,"viability, T/C",[20],61.4%
same,"viability, T/C",[21],67.8%
same,"viability, T/C",[22],79.9%
same,"viability, T/C",[23],88.9%
same,"viability, T/C",[24],11.3%
same,"viability, T/C",[25],42.4%
same,"viability, T/C",[26],45%
same,"viability, T/C",[27],52.1%
same,"viability, T/C",[28],66.9%
same,"viability, T/C",[29],76.6%
same,"viability, T/C",[30],11.9%
same,"viability, T/C",[31],49.2%
same,"viability, T/C",[32],47%
same,"viability, T/C",[33],56.9%
same,"viability, T/C",[34],71.8%
same,"viability, T/C",[35],72.1%
same,"viability, T/C",[36],10.8%
same,"viability, T/C",[37],41.8%
same,"viability, T/C",[38],44%
same,"viability, T/C",[39],49%
same,"viability, T/C",[40],67.3%
same,"viability, T/C",[41],69.2%
same,"viability, T/C",[42],3.57%
COc1ccc([C@@H](O)c2cc(-c3ncnc4cc(N5CCOCC5)ccc34)c(F)cc2Cl)nn1,"viability, T/C",compound 0.0316 µM,93.7% and 87.2%
same,"viability, T/C",compound 0.1 µM,92% and 97.7%
same,"viability, T/C",compound 0.316 µM,84.4% and 85%
same,"viability, T/C",compound 1 µM,67.6% and 79.7%
same,"viability, T/C",compound 3.16 µM,40.5% and 54.6%
same,"viability, T/C",compound 10 µM,24.7% and 26.3%
same,pIC50,curve of compound,5.67 and 5.42
